The values below come from publication PMC7311426, “An amphipathic peptide with antibiotic activity against multidrug-resistant Gram-negative bacteria” (Nature Communications, 2020).

Molecules are shown by their SMILES. Values after ≈ are worked out from the molar mass of the structure shown. Like-named read-outs stand apart in the source and are kept apart here. A value given as a limit tells only on which side of the number the result lay.

Holding throughout (assay): microbe, parasite or virus in culture
The subject of experiment [1] is A. baumannii. Particulars: Acinetobacter baumannii, ATCC19636, read-out: BMD MIC, A. baumannii ATCC 19636 type strain; MHB; mode of 6 replicates. Summed up: (§1)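 MICs were scored by eye after 18-20 h static incubation at 37 °C, with bacteria at 5 × 10^5 CFU mL^−1 in MHB. Peptides were serially diluted 2-fold over 12 points, top 128 or 64 μg mL^−1. CAMHB (CLSI) and 1% agarose-MHB variants were also run, at least six replicates.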

Experiment [2] concerns K. pneumoniae. Particulars: Klebsiella pneumoniae. Summed up:
as §1

In experiment [3] the test system is P. aeruginosa. Particulars: Pseudomonas aeruginosa, read-out: BMD MIC, P. aeruginosa FADDI-070, MDR; PmxR; MHB/CAMHB; mode of 6 replicates. Summed up: as §1
The subject of experiment [4] is S. aureus. In outline:
as §1

For `COc1cc(Cc2cnc(N)nc2N)cc(OC)c1OC` [Trimethoprim], the MIC in experiment [1] is 16 µg/mL (≈ 55.1 µM); in experiment [2] (ATCC13883, read-out: BMD MIC), 1 µg/mL (≈ 3.44 µM); in experiment [2] (ATCC700603, read-out: BMD MIC, K. pneumoniae ATCC 700603 (K6), MDR, OXA-2/SHV-18, MHB, mode of 6 replicates) it was 4 µg/mL (≈ 13.8 µM); in experiment [2] (BAA2146, read-out: BMD MIC, K. pneumoniae BAA-2146, MDR, ESBL, NDM-1 pos, MHB, mode of 6 replicates) it was > 64 µg/mL; in experiment [3] it was 64 µg/mL (≈ 220 µM); in experiment [4] (Staphylococcus aureus, ATCC25923 / MSSA, read-out: BMD MIC) it was 2 µg/mL (≈ 6.89 µM). Further, the “BMD MIC” value in experiment [4] (S. aureus ATCC 25923 MSSA, CAMHB, mode of 6 replicates) turned out to be 2 µg/mL.
